One assay relates to 35S-labeled NRF2. The format is biochemical. Particulars: HEK293T cell-free extracts.
The next assay relates to NRF2. The conditions noted are these: cited from earlier work.
For another assay, the system named is HEK293T cells. As to the kind of experiment: Cell viability. The assay is classed as cell-based. Particulars: siRNA knockdown, etoposide, MTT (Fig. 2E).
The subject of a further assay is endogenous KEAP1. Briefly: Streptavidin affinity pulldown of GLUE-WTX and Western blot, endogenous KEAP1. The assay is classed as cell-based.

Take “NRF2: transcription factor NF-E2-related factor-2”: the “half-life of exogenous NRF2 in cell extracts” value with 35S-labeled NRF2 is on record as around 6 h. Besides, the “half-life of exogenous and endogenous NRF2 in intact cells” value in the assay on NRF2 is given as around 20 min. Further, the “resistance to apoptosis-inducing reagents (conclusion)” value with HEK293T cells is listed as “promote resistance to apoptotic inducing reagents”.

B1: GLUE-WTX: N-terminal streptavidin-binding protein, calmodulin-binding protein, the hemagglutinin epitope (HA), and WTX (protein, UniProt Q5JTC6 1-1135, looked up)
APC membrane recruitment …: METQKDEAAQAKGAAASGSTREQTAEKGAKNKAAEATEGPTSEPSSSGPGRLKKTAMKLFGGKKGICTLPSFFGGGRSKGSGKGSSKKGLSKSKTHDGLSEAAHGPEDVVSEGTGFSLPLPELPCQFPSSQSAHGALETGSRCKTSVAGATEKAVAEKFPSMPKPKKGLKGFFSSIRRHRKSKVTGAEQSEPGAKGPERVRARPHEHVSSAPQVPCFEETFQAPRKENANPQDAPGPKVSPTPEPSPPATEKMACKDPEKPMEACASAHVQPKPAPEASSLEEPHSPETGEKVVAGEVNPPNGPVGDPLSLLFGDVTSLKSFDSLTGCGDIIAEQDMDSMTDSMASGGQRANRDGTKRSSCLVTYQGGGEEMALPDDDDEEEEEEEEVELEEEEEEVKEEEEDDDLEYLWETAQMYPRPNMNLGYHPTTSPGHHGYMLLDPVRSYPGLAPGELLTPQSDQQESAPNSDEGYYDSTTPGFEDDSGEALGLVRRDCLPRDSYSGDALYEFYEPDDSLENSPPGDDCLYDLHGRSSEMFDPFLNFEPFLSSRPPGAMETEEERLVTIQKQLLYWELRREQLEAQEARAREAHAREAHAREAYTREAYGREAYAREAHTWEAHGREARTREAQAREVRCRETQVRETQARQEKPVLEYQMRPLGPSVMGLAAGVSGTSQISHRGITSAFPTTASSEPDWRDFRPLEKRYEGTCSKKDQSTCLMQLFQSDAMFEPDMQEANFGGSPRRAYPTYSPPEDPEEEEVEKEGNATVSFSQALVEFTSNGNLFSSMSCSSDSDSSFTQNLPELPPMVTFDIADVERDGEGKCEENPEFHNDEDLAASLEAFELGYYHKHAFNNYHSRFYQGLPWGVSSLPRYLGLPGLHPRPPPAAMALNRRSRSLDTAETLEMELSNSHLVQGYLESDELQAQQEDSDEEDEEEEEGEWSRDSPLSLYTEPPGAYDWPAWAPCPLPVGPGPAWISPNQLDRPSSQSPYRQATCCIPPMTMSISLSVPESRAPGESGPQLARPSHLHLPMGPCYNLQPQASQSMRARPRDVLLPVDEPSCSSSSGGFSPSPLPQAKPVGITHGIPQLPRVRPEHPQPQPTHYGPSSLDLSKERAEQGASLATSYSSTAMNGNLAK
modifications: streptavidin-binding, calmodulin-binding peptide and HA tags
Turning to B1, the “complex with endogenous KEAP1” value in the assay with endogenous KEAP1 is “endogenous KEAP1 forms a complex with GLUE-WTX”.
